16 molecules from PubChem BioAssay (NCI) can be followed below.

By TGI is commonly meant the concentration giving total growth inhibition. Read a high TGI as less potent growth arrest. What is called GI50 is the concentration at which growth is held to half of that of the control.

What all share (assay): DTP human tumour cell line panel, 48 h
Experiment [1] has as its system 786-0 renal.
In experiment [2] the test system is HCT-116 colon.
Experiment [3] deals with HT29 colon.
Experiment [4] concerns NCI-H522 lung.
Experiment [5] concerns SK-MEL-5 melanoma.
Experiment [6] has as its system SW-620 colon.
Experiment [7] deals with MDA-MB-435.
In experiment [8] the test system is NCI/ADR-RES ovarian.
Experiment [9] deals with RXF 393 renal.
Experiment [10] deals with MCF7 breast.

SMILES strings stand for the structures. “And” between values parts separate entries of the source, which are not always exact repeats. Identical values can stand only once.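 Each compound was tested at five concentrations against cells in 96-well plates for 48 hours. Abbreviation: GI50, concentration required for 50% inhibition of growth. TGI is the concentration that stops growth completely.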

In the case of `CCOC(=O)NC(=O)c1cn(CC(=O)NCC(=O)NCC(=O)NCCCN2CCN(CCCNC(=O)CNC(=O)CNC(=O)Cn3cc(C(=O)NC(=O)OCC)c(=O)[nH]c3=O)CC2)c(=O)[nH]c1=O`, the TGI in [1], in experiment [2], in experiment [3], in experiment [4], in experiment [5] and in experiment [6] was more than 100 µM in each case.
On to `CCC1(CC)C(=O)OC(=O)C1(CC)CC`, for which the TGI in experiment [1], in experiment [2], in [3], in experiment [7], in experiment [4] and in [8] was more than 100 µM each time. The TGI in experiment [5] and in experiment [6] was more than 100 µM in each case.
As to `COc1cc(Cl)c2c3c(c(C(C)=O)oc13)CCC2`, the TGI in experiment [1], in experiment [2], in [3], in experiment [9], in [5] and in experiment [6] was more than 100 µM in each case.
For the molecule `COc1cc(/C=C(\C#N)C(=O)c2ccccc2)ccc1OCc1ccccc1`, the total growth inhibition concentration (TGI) in experiment [1], in experiment [2], in experiment [4], in experiment [5] and in experiment [6] was more than 100 µM throughout.
As for `CCOC(=O)C(N)C[S][Sn]([CH3])([CH3])[Cl]` (stereo unspecified), the GI50 was more than 100 µM in [1]; more than 100 µM in experiment [2]; more than 100 µM in experiment [3]; 18.4 µM in [4]; more than 100 µM in [9]; more than 100 µM in [5]. The GI50 in experiment [6] was more than 100 µM. In addition, the TGI in experiment [1] was more than 100 µM; in experiment [2], more than 100 µM; in experiment [3] it was more than 100 µM; in experiment [4], 38.4 µM; in [9], more than 100 µM; in experiment [5], more than 100 µM. This molecule also returned a TGI in [6] of more than 100 µM.
Regarding `CC[C@@H]1OC2(C)CC(S(=O)(=O)c3ccccc3O)CC1O2` (stereo partly specified), the TGI in experiment [1], in [2], in [4], in experiment [9], in experiment [5] and in experiment [6] was more than 100 µM throughout.
For `Cc1[nH]c2ccccc2c1C1Cc2ccccc2N1C(=O)/C=C\C(=O)O` (stereo unspecified), the TGI was more than 100 µM in [1]; more than 100 µM in [2]; more than 100 µM in [3]; 77.4 µM in [4]; 71.3 µM in experiment [9]; 88.3 µM in experiment [5]. In [6], the TGI was more than 100 µM.
For the molecule `COc1ccccc1N1C(=O)/C(=C/c2ccc(N(CCC#N)CCC#N)cc2C)N=C1c1cc([N+](=O)[O-])ccc1Cl`, the TGI in [1], in [2], in experiment [3], in experiment [4] and in experiment [5] was more than 100 µM throughout.
Turning to `CC(C)CS(=O)(=O)/C(=C(\c1ccc(Br)cc1)S(=O)(=O)CC(C)C)c1ccc(Br)cc1`, the TGI in [1] is more than 100 µM; in experiment [2], more than 100 µM; in experiment [3], more than 100 µM; in experiment [4], more than 100 µM; in experiment [9], more than 100 µM; in experiment [5], 2.8 µM. This molecule came in with a TGI in [6] of more than 100 µM.
`COc1ccc([N+]2=NC(c3ccc([N+](=O)[O-])cc3)=NN(c3ccccc3)C2)cc1`: the TGI in [1] was more than 100 µM; in experiment [2], more than 100 µM; in [3], more than 100 µM; in [4] it was 5.87 µM and 10.5 µM; in [9], more than 100 µM; in experiment [5], 61.5 µM and 83.9 µM. For the same molecule, in experiment [6], the TGI is more than 100 µM.
In the case of `COc1ccc(NC(=O)C(=O)C(C(=O)c2ccccc2)C2OC(=O)c3ccccc32)c([N+](=O)[O-])c1` (stereo unspecified), the TGI in [1], in [2], in experiment [3], in experiment [4], in experiment [9] and in [5] was more than 100 µM each time. In experiment [6], this molecule displayed a TGI of more than 100 µM.
For `NC(=O)C(=Cc1ccc(C(O)P(=O)(O)O)cc1)C(N)=O` (stereo unspecified), the TGI in experiment [1], in [2], in experiment [3], in experiment [4], in [9] and in experiment [5] was more than 100 µM in each case. Besides, in [6], the TGI is more than 100 µM.
As for `COc1cc(OC)c(/C=C/S(=O)(=O)Cc2cnc(OC)c(N)c2)c(OC)c1`, the GI50 in experiment [1] was less than 0.031 µM; in experiment [2], less than 0.0209 µM; in [3] it was less than 0.0185 µM; in [10], less than 15.5 nM; in experiment [4], less than 0.01 µM; in experiment [8] it was less than 10 nM. The GI50 is less than 0.01 µM in experiment [9], less than 0.014 µM in experiment [5] and less than 0.0188 µM in experiment [6]. Besides, the TGI in experiment [1] is more than 100 µM; in [2] it was more than 100 µM; in experiment [10], more than 100 µM; in experiment [8] it was more than 100 µM; in [9] it was more than 100 µM; in experiment [5], 0.721 µM. Also, the TGI in experiment [6] is more than 100 µM.
Regarding `CCCCc1c2c(nc3c1CCC/C3=C\c1ccccc1)C(=O)CCC2`, the concentration for total growth inhibition (TGI) in experiment [1] came to 60.9 µM; in experiment [2], 39.5 µM; in experiment [3], 31.4 µM; in [4], 29.5 µM; in experiment [9] it was 33 µM; in experiment [5] it was 30.4 µM. Further, the TGI in [6] was determined as 45 µM.
Turning to `COC(=O)c1s/c(=N\C(=S)N(C)C)n(-c2ccccc2)c1C(=O)OC`, the TGI in experiment [1], in experiment [2], in experiment [3], in experiment [4], in experiment [9] and in [5] was more than 100 µM throughout. The molecule also came in with a TGI in experiment [6] of more than 100 µM.
For `COc1ccc(-c2onc(-c3ccc([N+](=O)[O-])cc3)c2C2=NCCN2)cc1`, the TGI was 43 µM in experiment [1]; more than 100 µM in [2]; more than 100 µM in [3]; more than 100 µM in experiment [9]; more than 100 µM in experiment [5]; more than 100 µM in experiment [6].
